# According to PubChem BioAssay AID1963845 (Molecular Pharmacology Branch, DTP, NCI, 2024):
# Test system: 429239-143-T-J1-PDC complex spheroid viability
# Test: Anticancer human tumor 429239-143-T-J1-PDC patient-derived small cell lung carcinoma cell line growth inhibition [POLQ]
# Conditions: for IC50: curve of first compound; for viability, T/C: stronger effect = lower value
# Description: Multicellular complex tumor spheroid response to Polymerase (POL) inhibitors (novobiocin, ART-558, RP6685) in combination with a variety of drugs and investigational agents in selected tumor cell lines
# The POL inhibitors (novobiocin, ART-558, and RP6685) were evaluated both individually and in combination with standard of care and investigational anticancer small molecules within a complex spheroid model of solid tumors. . Complex spheroids include a stromal component modeled by human endothelial cells (HUVEC) and fibroblasts modeled by human mesenchymal stem cells (MSCs). The concentration ranges selected for each drug and investigational agent were based upon clinically achievable concentrations if the clinical Cmax of the agent was known.
# Compounds. The drugs and investigational agents: novobiocin (NSC847541), ART-558 (NSC835418), RP-6685 (NSC848927), peposertib (NSC802822), ceralasertib (NSC780249), elimusertib (NSC800525), camonsertib (NSC841442), AZD-1390 (NSC803789), olaparib (NSC753686), talazoparib (NSC767125), rucaparib (NSC756644), sotorasib (NSC818433), MRTX-1133 (NSC836407), SN-38 (NSC673596), topotecan (NSC609699), epotoside (NSC141540), doxorubicin (NSC123127), gemcitabine (NSC613327), 5-fluorouracil (NSC19893), paclitaxel (NSC125973), vemurafenib (NSC761431), MSA-2 (NSC828583), SN-011 (NSC837082), adavosertib (NSC754352), prexasertib (NSC758257), carboplatin (NSC241240) and oxaliplatin (NSC266046), were obtained from the National Cancer Institute (NCI) Developmental Therapeutics Program Chemical Repository (21). The FDA-approved anticancer drug set is available from the Developmental Therapeutics Program at https://dtp.cancer.gov/organization/dscb/obtaining/. […] The stock solutions were prepared in dimethyl sulfoxide (DMSO, Sigma-Aldrich, St. Louis, MO, cat. D2650), except for the platinum compounds which were prepared in saline (Quality Biological, Gaithersburg, MD, cat. 114-055-101), at 800-fold the tested concentration and stored at -70 degrees C prior to their use. All drugs and investigational agents were tested over a range starting from a high concentration at or near the clinical Cmax and decreasing in half-log increments. If the clinical Cmax for an agent had not been determined, the highest concentration tested was 10 microM, except for SN-38, which was tested at a high concentration of 1 microM.
# Cell Culture. All cells were maintained in an incubator at 37 degrees C and 5% CO2 with 95% humidity. The PDC lines were cultured according to standard operating procedures established by the NCI PDMR (https://pdmr.cancer.gov). Table 3 of the manuscript, lists the cell lines along with the number of the three cell types plated to form the mct-spheroids and media for tumor cell growth. After thawing, all PDC lines, except 997537-175-T-J1-PDC and 415267-285-R-J2-PDC, were cultured in Matrigel-coated flasks prepared with a working solution of 1X Ham's F-12 nutrient mix, without supplementation (Thermo Fisher Scientific, cat. 11765054), 100 U/mL penicillin-streptomycin (Thermo Fisher Scientific, cat. 15140122), and 2.5% Matrigel (Corning Inc., Corning, NY, cat. 354248) for the first three passages. The two PDC lines 997537-175-T-J1-PDC and 415267-285-R-J2-PDC were cultured on uncoated flasks. The 857933-349-R-J2-PDC line was cultured in 6C/Colon 1B media containing advanced DMEM/F-12 (Thermo Fisher Scientific, cat. 12634028), 10 mM HEPES (Thermo Fisher Scientific, cat. 15630080), 1X GlutaMAX supplement (Thermo Fisher Scientific, cat. 35050061), 0.1 mg/mL primocin (InvivoGen, San Diego, CA, cat. ant-pm-2), 10% defined fetal bovine serum, heat inactivated (HyClone Laboratories Inc., Logan, UT, cat. SH30070.03HI), 50% L-WRN conditioned media (ATCC, cat. CRL-3276), 1.25 mM N-Acetyl-L-cysteine (Sigma-Aldrich, cat. A9165), 10 mM nicotinamide (Sigma-Aldrich, cat. N0636), 1X B-27 supplement (Thermo Fisher Scientific, cat. 17504044), 1X N-2 supplement (Thermo Fisher Scientific, cat. […]
# [1] = second compound 0.0316 µM, first compound 0.0316 µM
# [2] = second compound 0.0316 µM, first compound 0.1 µM
# [3] = second compound 0.0316 µM, first compound 0.316 µM
# [4] = second compound 0.0316 µM, first compound 1 µM
# [5] = second compound 0.1 µM, first compound 0.0316 µM
# [6] = second compound 0.1 µM, first compound 0.1 µM
# [7] = second compound 0.1 µM, first compound 0.316 µM
# [8] = second compound 0.1 µM, first compound 1 µM
# [9] = second compound 0.316 µM, first compound 0.0316 µM
# [10] = second compound 0.316 µM, first compound 0.1 µM
# [11] = second compound 0.316 µM, first compound 0.316 µM
# [12] = second compound 0.316 µM, first compound 1 µM
# [13] = second compound 1 µM, first compound 0.0316 µM
# [14] = second compound 1 µM, first compound 0.1 µM
# [15] = second compound 1 µM, first compound 0.316 µM
# [16] = second compound 1 µM, first compound 1 µM
# [17] = second compound 3.16 µM, first compound 0.0316 µM
# [18] = second compound 3.16 µM, first compound 0.1 µM
# [19] = second compound 3.16 µM, first compound 0.316 µM
# [20] = second compound 3.16 µM, first compound 1 µM
# [21] = second compound 10 µM, first compound 0.0316 µM
# [22] = second compound 10 µM, first compound 0.1 µM
# [23] = second compound 10 µM, first compound 0.316 µM
# [24] = second compound 10 µM, first compound 1 µM
# 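Note: luminescence signal used as surrogate measure of viable cells; spheroids exposed to compounds for seven days before readout.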
# 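Throughout, for viability, T/C: 100% = DMSO vehicle control viability as luminescence relative to vehicle.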
structure (smiles),measurement,setting,value
C=CCn1c(=O)c2cnc(Nc3ccc(N4CCN(C)CC4)cc3)nc2n1-c1cccc(C(C)(C)O)n1 + COC1C(OC(N)=O)C(O)C(Oc2ccc3c(O)c(NC(=O)c4ccc(O)c(CC=C(C)C)c4)c(=O)oc3c2C)OC1(C)C,IC50,second compound 0.0316 µM,0.576 µM
same,IC50,second compound 0.1 µM,0.464 µM
same,IC50,second compound 0.316 µM,0.591 µM
same,IC50,second compound 1 µM,0.58 µM
same,IC50,second compound 3.16 µM,0.632 µM
same,IC50,second compound 10 µM,0.6 µM
same,"viability, T/C","second compound 0.0316 µM, first compound 0.00316 µM",105%
same,"viability, T/C","second compound 0.0316 µM, first compound 0.01 µM",93%
same,"viability, T/C",[1],104%
same,"viability, T/C",[2],104%
same,"viability, T/C",[3],85.7%
same,"viability, T/C",[4],17.1%
same,"viability, T/C","second compound 0.1 µM, first compound 0.00316 µM",92%
same,"viability, T/C","second compound 0.1 µM, first compound 0.01 µM",104%
same,"viability, T/C",[5],92.6%
same,"viability, T/C",[6],105%
same,"viability, T/C",[7],66%
same,"viability, T/C",[8],17.8%
same,"viability, T/C","second compound 0.316 µM, first compound 0.00316 µM",110%
same,"viability, T/C","second compound 0.316 µM, first compound 0.01 µM",88.2%
same,"viability, T/C",[9],107%
same,"viability, T/C",[10],118%
same,"viability, T/C",[11],82.5%
same,"viability, T/C",[12],22.7%
same,"viability, T/C","second compound 1 µM, first compound 0.00316 µM",95.3%
same,"viability, T/C","second compound 1 µM, first compound 0.01 µM",83.5%
same,"viability, T/C",[13],101%
same,"viability, T/C",[14],88.7%
same,"viability, T/C",[15],82.2%
same,"viability, T/C",[16],21%
same,"viability, T/C","second compound 3.16 µM, first compound 0.00316 µM",98.8%
same,"viability, T/C","second compound 3.16 µM, first compound 0.01 µM",90%
same,"viability, T/C",[17],94.2%
same,"viability, T/C",[18],96.3%
same,"viability, T/C",[19],97.1%
same,"viability, T/C",[20],20%
same,"viability, T/C","second compound 10 µM, first compound 0.00316 µM",91.7%
same,"viability, T/C","second compound 10 µM, first compound 0.01 µM",83.2%
same,"viability, T/C",[21],85.1%
same,"viability, T/C",[22],83.7%
same,"viability, T/C",[23],84%
same,"viability, T/C",[24],22.8%
O=c1[nH]cc(F)c(=O)[nH]1 + Cc1cccc(N(C)C(=O)C2C(O)CCN2c2nc(C)cc(C(F)(F)F)c2C#N)c1,IC50,second compound 0.0316 µM,> 10 µM
same,IC50,second compound 0.1 µM,6.82 µM
same,IC50,second compound 0.316 µM,> 10 µM
same,IC50,second compound 1 µM,9.33 µM
same,IC50,second compound 3.16 µM,> 10 µM
same,IC50,second compound 10 µM,9.51 µM
same,"viability, T/C",[1],108%
same,"viability, T/C",[2],109%
same,"viability, T/C",[3],101%
same,"viability, T/C",[4],105%
same,"viability, T/C","second compound 0.0316 µM, first compound 3.16 µM",65.9%
same,"viability, T/C","second compound 0.0316 µM, first compound 10 µM",54.5%
same,"viability, T/C",[5],106%
same,"viability, T/C",[6],92.3%
same,"viability, T/C",[7],104%
same,"viability, T/C",[8],91.1%
same,"viability, T/C","second compound 0.1 µM, first compound 3.16 µM",61.4%
same,"viability, T/C","second compound 0.1 µM, first compound 10 µM",44.4%
same,"viability, T/C",[9],96.6%
same,"viability, T/C",[10],112%
same,"viability, T/C",[11],101%
same,"viability, T/C",[12],104%
same,"viability, T/C","second compound 0.316 µM, first compound 3.16 µM",56.5%
same,"viability, T/C","second compound 0.316 µM, first compound 10 µM",50.8%
same,"viability, T/C",[13],105%
same,"viability, T/C",[14],110%
same,"viability, T/C",[15],120%
same,"viability, T/C",[16],87.8%
same,"viability, T/C","second compound 1 µM, first compound 3.16 µM",72.4%
same,"viability, T/C","second compound 1 µM, first compound 10 µM",47.7%
same,"viability, T/C",[17],95.9%
same,"viability, T/C",[18],97.2%
same,"viability, T/C",[19],114%
same,"viability, T/C",[20],78.2%
same,"viability, T/C","second compound 3.16 µM, first compound 3.16 µM",56.5%
same,"viability, T/C","second compound 3.16 µM, first compound 10 µM",47.6%
same,"viability, T/C",[21],98.7%
same,"viability, T/C",[22],93.9%
same,"viability, T/C",[23],97.5%
same,"viability, T/C",[24],83.9%
same,"viability, T/C","second compound 10 µM, first compound 3.16 µM",65%
same,"viability, T/C","second compound 10 µM, first compound 10 µM",49.2%
